Laboratory results reported in ChEMBL document CHEMBL1201862, “PubChem BioAssay data set” (2004).
The source made the active and inactive calls. Cut-off read from the data, not from the text of the source, for most assays here: actives have a measured EC50 and inactives only a lower limit.

Assays:
[1] = NIH3T3 cell viability loss – ATP luminescence, mouse fibroblasts, counter-screen, dose response (AID 2010); assay type: functional, cell-based;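 note: cells exposed to compound for about 90 hours before reading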
[2] = Trypanosoma cruzi growth suppression in host cells – NIH3T3 host cells, beta-gal luminescence, confirmation (AID 2044); assay type: functional, cell-based;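 note: intracellular parasites grown in NIH/3T3 mouse fibroblasts as host cells; luminescent beta-galactosidase reporter signal from transgenic T. cruzi replicating inside host cells; inhibitors lower the luminescence signal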
[3] = target: T1, Heat shock factor protein 1 (Mus musculus, UniProt P38532); assay: enhancement of HSF1-driven luciferase signal – cell-based, NIH3T3, luminescence, dose retest, confirmation (AID 435004); assay type: functional;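 note: stress induced by proteasome inhibitor MG132 added 30 min after compound; luciferase reporter driven by HSF1 response element in NIH3T3 cells; actives raise luminescence as potentiators of the MG132 stress response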
T1 sequence (P38532 whole entry): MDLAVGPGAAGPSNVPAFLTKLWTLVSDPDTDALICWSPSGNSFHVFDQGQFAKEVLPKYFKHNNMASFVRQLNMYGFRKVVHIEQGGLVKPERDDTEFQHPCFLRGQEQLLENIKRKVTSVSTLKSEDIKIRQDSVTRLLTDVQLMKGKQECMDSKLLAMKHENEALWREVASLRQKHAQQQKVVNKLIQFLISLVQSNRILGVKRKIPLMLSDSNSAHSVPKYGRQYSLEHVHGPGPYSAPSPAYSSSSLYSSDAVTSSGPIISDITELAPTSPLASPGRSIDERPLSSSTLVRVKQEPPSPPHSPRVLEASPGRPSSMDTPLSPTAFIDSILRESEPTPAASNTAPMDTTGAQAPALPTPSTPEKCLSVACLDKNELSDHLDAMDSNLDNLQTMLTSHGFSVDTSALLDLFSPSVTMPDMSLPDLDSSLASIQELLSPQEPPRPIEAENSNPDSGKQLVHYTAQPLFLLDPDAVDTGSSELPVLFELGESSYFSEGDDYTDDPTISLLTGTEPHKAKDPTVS

[4] = target: Glyceraldehyde-3-phosphate dehydrogenase (Homo sapiens, UniProt P04406)
Glyceraldehyde-3-phosphate dehydrogenase, sequence (P04406 whole entry): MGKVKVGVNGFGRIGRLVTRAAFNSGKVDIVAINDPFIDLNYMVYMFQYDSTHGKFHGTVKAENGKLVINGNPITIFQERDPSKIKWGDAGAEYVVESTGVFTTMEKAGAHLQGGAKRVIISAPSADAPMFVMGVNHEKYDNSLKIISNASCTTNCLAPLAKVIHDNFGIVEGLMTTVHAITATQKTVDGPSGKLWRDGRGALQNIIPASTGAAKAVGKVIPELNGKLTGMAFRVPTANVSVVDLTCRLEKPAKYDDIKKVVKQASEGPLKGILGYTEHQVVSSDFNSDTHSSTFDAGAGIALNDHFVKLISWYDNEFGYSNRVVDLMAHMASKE

[5] = fluconazole-exposed Candida albicans growth modulators – fluorescence, retest, confirmation (AID 2467); assay type: functional, cell-based
[6] = NIH-3T3 fibroblast cytotoxicity, dose response, cytotoxicity control, cell-based, fluorescence, Alamar Blue, secondary assay (AID 2327); assay type: functional;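 note: NIH-3T3 mouse fibroblasts cultured with fluconazole at 8 µg/mL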
Streptococcus = assay: GAS UMAA2166 growth inhibition – luminescence, BacTiterGlo, counter-screen for streptokinase expression inhibitor project, dose response (AID 1915); assay type: functional, organism-based;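 note: potency for reduction of bacterial viability or growth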
[7] = tested on: Streptococcus sp. 'group A'; assay: Streptococcus pyogenes SK(-)GAS viability under kanamycin – luminescence, BacTiterGlo, confirmation, counter-screen for streptokinase expression inhibitor project, dose response (AID 1900); assay type: functional, organism-based
Streptokinase A = target: T2, Streptokinase A (Streptococcus pyogenes serotype M1, UniProt P10520); assay: viability-normalized secreted streptokinase activity reduction – plasminogen activation absorbance, OD405, dose response (AID 1914); assay type: functional, Streptococcus pyogenes M1 GAS;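 note: secreted streptokinase activity via plasminogen activation per viability signal from cell pellet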
T2 sequence (P10520 whole entry): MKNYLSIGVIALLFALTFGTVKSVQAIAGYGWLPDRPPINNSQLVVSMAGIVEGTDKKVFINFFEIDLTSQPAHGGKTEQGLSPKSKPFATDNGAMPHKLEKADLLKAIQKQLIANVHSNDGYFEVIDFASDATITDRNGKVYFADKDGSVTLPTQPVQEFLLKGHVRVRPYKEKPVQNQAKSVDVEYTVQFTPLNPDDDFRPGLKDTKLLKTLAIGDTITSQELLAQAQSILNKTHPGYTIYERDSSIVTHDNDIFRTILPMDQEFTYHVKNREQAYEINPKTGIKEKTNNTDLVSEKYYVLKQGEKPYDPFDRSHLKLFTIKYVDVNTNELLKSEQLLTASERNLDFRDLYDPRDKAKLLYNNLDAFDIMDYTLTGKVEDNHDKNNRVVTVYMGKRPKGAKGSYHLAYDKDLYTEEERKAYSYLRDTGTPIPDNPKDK

[8] = luciferase reporter signal suppression in cells – H4 neuroglioma cells, luminescence, dose response (AID 1990); assay type: functional, cell-based
[9] = Luminescence Cell-Based Dose Response HTS to Identify Inhibitors of 5'UTR Stem-Loop Driven Prion Protein mRNA Translation in H4 Neuroglioblastoma Cells. [Related pubchem assays: 1827 (Project Summary), 1813 (Primary HTS)]; assay type: functional
[10] = alpha-synuclein stem-loop luciferase translation blockers – H4 neuroglioma cells, luminescence, confirmation (AID 1988); assay type: functional, cell-based
Cytochrome P450 3A4 = Cytochrome P450 3A4 (Homo sapiens, UniProt P08684);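 note: CYP3A4 tested as one member of a cytochrome P450 panel screen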
Cytochrome P450 3A4, sequence (P08684 whole entry): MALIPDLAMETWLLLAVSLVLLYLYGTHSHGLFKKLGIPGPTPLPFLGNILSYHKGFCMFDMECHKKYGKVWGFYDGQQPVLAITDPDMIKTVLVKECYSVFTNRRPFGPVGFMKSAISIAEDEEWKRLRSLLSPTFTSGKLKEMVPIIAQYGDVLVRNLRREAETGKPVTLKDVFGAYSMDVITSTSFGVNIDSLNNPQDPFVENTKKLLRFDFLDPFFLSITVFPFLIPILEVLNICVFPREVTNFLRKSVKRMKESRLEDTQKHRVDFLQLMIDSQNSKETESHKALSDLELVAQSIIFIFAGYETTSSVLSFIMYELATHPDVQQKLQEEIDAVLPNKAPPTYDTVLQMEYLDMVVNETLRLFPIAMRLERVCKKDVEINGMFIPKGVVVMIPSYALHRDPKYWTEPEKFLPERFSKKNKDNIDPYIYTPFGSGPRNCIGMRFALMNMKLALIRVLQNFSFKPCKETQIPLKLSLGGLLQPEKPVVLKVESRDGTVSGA

C=CCN(C(=O)CCc1ccccc1OC)c1nc(-c2ccc(S(C)(=O)=O)cc2)cs1
EC50 [1]: 5.05 µM (active)
EC50 [2]: 1.93 µM (active)
EC50 [3]: > 260 µM (inactive)

O=C1CC(C(=O)Nc2ccc(O)c(C(=O)O)c2)C(c2ccccc2)O1 (centres undefined)
IC50 [4]: > 100 µM (not active)

CN(Cc1ccccc1)C(=O)c1cc(-c2ccc(Br)cc2)on1
EC50 [3]: 110 µM (active)

O=C(CSc1ccc(Cl)cc1)Nc1nnc(-c2ccco2)o1
EC50 [5]: 3.02 µM (active)
EC50 [6]: > 160 µM (inconclusive)

CCC(C)c1ccc(C2C3=C(O)c4ccccc4C3=Nc3nc(N)nc(O)c32)cc1 (centres undefined)
EC50 (Streptococcus): 8.57 µM (active)
EC50 [7]: 3.11 µM (active)
EC50 (Streptokinase A): > 50 µM (not active)

COc1cccc(-c2nnc(SCc3nc4ccccc4[nH]3)n2N)c1
EC50 [3]: > 260 µM (inactive)

O=C(/C=C/c1ccco1)Nc1nc(-c2ccccn2)cs1
EC50 (Streptococcus): > 150 µM (not active)
EC50 [1]: 11.6 µM (active)
EC50 [7]: 18 µM (active)
EC50 [2]: 4.02 µM (active)
EC50 (Streptokinase A): > 150 µM (not active)

CC(=O)Nc1ncnc2c1c(-c1ccc(Cl)cc1)nn2C(C)(C)C
EC50 [8]: 11.4 µM (active)
EC50 [5]: 1.15 µM (active)
EC50 [9]: 13.3 µM (active)
EC50 [1]: 2.66 µM (active)
EC50 [2]: 0.14 µM (active)
EC50 [6]: 36.2 µM (active)
EC50 [10]: 10.2 µM (active)

COc1ccc(C(=O)N2CC3(CC(c4ccc(Cl)cc4)=NO3)C[C@H]2C(=O)NCC(N)=O)cc1 (some centres undefined)
AC50 (Cytochrome P450 3A4): 31.6 µM (inconclusive)

O=C(CN1C(=O)NC(Cc2c[nH]c3ccccc23)C1=O)Nc1cccc(S(=O)(=O)N2CCOCC2)c1 (centres undefined)
EC50 [3]: > 260 µM (inactive)

O=C(O)c1ccc(-c2nc(-c3ccc(Cl)c(Cl)c3)cs2)cc1
EC50 (Streptococcus): 6.62 µM (active)
EC50 [5]: 3.35 µM (active)
EC50 [7]: 3.54 µM (active)
EC50 [6]: > 160 µM (inactive)

COc1cccc(N2C(=O)C(Cl)=C(N3CCOCC3)C2=O)c1
IC50 [4]: > 50 µM (inconclusive)

C[C@H]1CC(C)(C)C[C@@](OCCN2CCCCC2)(c2ccccc2)C1
AC50 (Cytochrome P450 3A4): 3.16 µM (inconclusive)

c1ccc(-c2csc3ncnc(N4CCc5ccccc5C4)c23)cc1
EC50 (Streptococcus): 19.5 µM (active)
EC50 [7]: 5.31 µM (active)
EC50 (Streptokinase A): 4.83 µM (active)

COc1cccc(C(=O)COC(=O)C(C)N2C(=O)C3C4C=CC(C4)C3C2=O)c1 (centres undefined)
EC50 [3]: > 260 µM (inactive)

Cc1ccc(-n2c(O)cc(=O)nc2SCC(=O)Nc2ccc3c4c(cccc24)CC3)cc1
EC50 (Streptococcus): > 150 µM (not active)
EC50 [7]: 28.4 µM (active)
EC50 (Streptokinase A): > 150 µM (not active)

FC(F)(F)c1cccc(NC(=S)N2CCCC2)c1
EC50 (Streptococcus): > 150 µM (not active)
EC50 [7]: > 150 µM (not active)
EC50 (Streptokinase A): > 150 µM (not active)

O=c1c(-c2ccccc2)nc2cnc(Nc3ccccc3)nc2n1C[C@H]1CCCO1
AC50 (Cytochrome P450 3A4): 12.6 µM (inconclusive)

O=C(O)[C@@H]1[C@@H](C(=O)NCc2ccncc2)[C@@H]2C=C[C@@H]1O2
AC50 (Cytochrome P450 3A4): 3.98 µM (inconclusive)

Cc1ccc2c(O)nc(Nc3nc(C)cc(-c4ccccc4)n3)nc2c1
EC50 (Streptococcus): 5.49 µM (active)
EC50 [7]: 7.26 µM (active)
EC50 (Streptokinase A): > 150 µM (not active)

CCn1nc(C)cc1C(=O)Sc1ccc(Cl)cc1Cl
EC50 [3]: 14.9 µM (active)

Cc1ccc(-c2nnc(-c3ccc(NC(=O)c4cccs4)cc3)o2)cc1
AC50 (Cytochrome P450 3A4): 20 µM (inconclusive)

N#Cc1ccccc1-c1cncnc1NCc1cccnc1
AC50 (Cytochrome P450 3A4): 0.2 µM (inconclusive)
